Test results: patent publication US11135234B2, “Effective aminoglycoside antibiotic for multidrug-resistant bacteria” (MICROBIAL CHEMISTRY RESEARCH FOUNDATION, priority 2015, dated 2021)
Values after ≈ are worked out from the molar mass of the structure shown.

Experiments:
[1] = tested on: A. baumannii ATCC BAA-1710; assay: MIC, agar plate dilution method, A. baumannii ATCC BAA-1710; assay type: cell-based, Acinetobacter baumannii; conditions: A. baumannii ATCC BAA-1710, MDRA
Procedure: (§1) As for the representative compounds of a new aminoglycoside antibiotic of the present invention described in Examples, the minimal inhibitory concentration (MIC, μg/mL) was measured for various assay strains of bacteria using an agar plate dilution method in accordance with the method described in the Japan Society of Chemotherapy.

S. marcescens GN6944 = assay: MIC, agar plate dilution method, S. marcescens GN6944; assay type: cell-based, Serratia marcescens; conditions: S. marcescens GN6944, GM-resistant
Procedure: as §1

E. faecium ATCC19434 = assay: MIC, agar plate dilution method, E. faecium ATCC19434; assay type: cell-based, Enterococcus faecium; conditions: E. faecium ATCC19434
Procedure: as §1

P. aeruginosa PAO1/GN315 = assay: MIC, agar plate dilution method, P. aeruginosa PAO1/GN315; assay type: cell-based, Pseudomonas aeruginosa; conditions: P. aeruginosa PAO1/GN315, AMK-resistant
Procedure: as §1

P. aeruginosa MSC17707 = assay: MIC, agar plate dilution method, P. aeruginosa MSC17707; assay type: cell-based, Pseudomonas aeruginosa; conditions: P. aeruginosa MSC17707, AMK-resistant
Procedure: as §1

S. aureus MF490 = assay: MIC, agar plate dilution method, S. aureus MF490; assay type: cell-based, Staphylococcus aureus; conditions: S. aureus MF490, MRSA
Procedure: as §1

S. aureus RN4220 = assay: MIC, agar plate dilution method, S. aureus RN4220; assay type: cell-based, Staphylococcus aureus; conditions: S. aureus RN4220, Sensitive bacterium
Procedure: as §1

[2] = tested on: K. pneumoniae ATCC BAA-1705; assay: MIC, agar plate dilution method, K. pneumoniae ATCC BAA-1705; assay type: cell-based, Klebsiella pneumoniae; conditions: K. pneumoniae ATCC BAA-1705, KPC-producing strain
Procedure: as §1

[3] = tested on: K. pneumoniae ATCC BAA-2146; assay: MIC, agar plate dilution method, K. pneumoniae ATCC BAA-2146; assay type: cell-based, Klebsiella pneumoniae; conditions: K. pneumoniae ATCC BAA-2146, NDM-producing strain
Procedure: as §1

P. aeruginosa MSC01035 = assay: MIC, agar plate dilution method, P. aeruginosa MSC01035; assay type: cell-based, Pseudomonas aeruginosa; conditions: P. aeruginosa MSC01035, ABK-resistant
Procedure: as §1

E. coli JM109/pMW218 = assay: MIC, agar plate dilution method, E. coli JM109/pMW218; assay type: cell-based, Escherichia coli; conditions: E. coli JM109/pMW218, Sensitive bacterium
Procedure: as §1

P. aeruginosa PAO1 = assay: MIC, agar plate dilution method, P. aeruginosa PAO1; assay type: cell-based, Pseudomonas aeruginosa; conditions: P. aeruginosa PAO1, Sensitive bacterium
Procedure: as §1

S. marcescens TH-0447 = assay: MIC, agar plate dilution method, S. marcescens TH-0447; assay type: cell-based, Serratia marcescens; conditions: S. marcescens TH-0447, AMK-resistant
Procedure: as §1

S. aureus RN4220/pMS520 = assay: MIC, agar plate dilution method, S. aureus RN4220/pMS520; assay type: cell-based, Staphylococcus aureus; conditions: S. aureus RN4220/pMS520, MRSA
Procedure: as §1

SMILES | minimal inhibitory concentration (MIC) [1] [mg/L] | minimal inhibitory concentration (MIC) (S. marcescens GN6944) [mg/L] | minimal inhibitory concentration (MIC) (E. faecium ATCC19434) [mg/L] | minimal inhibitory concentration (MIC) (P. aeruginosa PAO1/GN315) [mg/L] | minimal inhibitory concentration (MIC) (P. aeruginosa MSC17707) [mg/L] | minimal inhibitory concentration (MIC) (S. aureus MF490) [mg/L] | minimal inhibitory concentration (MIC) (S. aureus RN4220) [mg/L] | minimal inhibitory concentration (MIC) [2] [mg/L] | minimal inhibitory concentration (MIC) [3] [mg/L] | minimal inhibitory concentration (MIC) (P. aeruginosa MSC01035) [mg/L] | minimal inhibitory concentration (MIC) (E. coli JM109/pMW218) [mg/L] | minimal inhibitory concentration (MIC) (P. aeruginosa PAO1) [mg/L] | minimal inhibitory concentration (MIC) (S. marcescens TH-0447) [mg/L] | minimal inhibitory concentration (MIC) (S. aureus RN4220/pMS520) [mg/L]
CNC1C(OC2OC(CO)C(N)C(O)C2O)OC2CC(N)C(OC3C(N)CC(N)C(O)C3O)OC2C1O (stereo not shown) [Compound B5, 5-epiapramycin] | 8 (≈ 14.8 µM) | 8 (≈ 14.8 µM) | 16 (≈ 29.7 µM) | 4 (≈ 7.41 µM) | 4 (≈ 7.41 µM) | 8 (≈ 14.8 µM) | 4 (≈ 7.41 µM) | 1 (≈ 1.85 µM) | 1 (≈ 1.85 µM) | 4 (≈ 7.41 µM) | 1 (≈ 1.85 µM) | 4 (≈ 7.41 µM) | 8 (≈ 14.8 µM) | 2 (≈ 3.71 µM)
CNC1C(OC2OC(CO)C(N)C(O)C2O)OC2CC(N)C(OC3C(N)CC(N)C(O)C3F)OC2C1O (stereo not drawn) [Compound B7, 5-deoxy-5-epi-5-fluoroapramycin] | 8 (≈ 14.8 µM) | 8 (≈ 14.8 µM) | 32 (≈ 59.1 µM) | 8 (≈ 14.8 µM) | 8 (≈ 14.8 µM) | 16 (≈ 29.5 µM) | 4 (≈ 7.39 µM) | 2 (≈ 3.69 µM) | 2 (≈ 3.69 µM) | 8 (≈ 14.8 µM) | 1 (≈ 1.85 µM) | 4 (≈ 7.39 µM) | 16 (≈ 29.5 µM) | 4 (≈ 7.39 µM)
CN[C@@H]1[C@@H](O[C@H]2O[C@H](CO)[C@@H](N)[C@H](O)[C@H]2O)O[C@H]2C[C@@H](N)[C@@H](O[C@@H]3[C@@H](N)C[C@@H](N)C[C@@H]3O)O[C@@H]2[C@@H]1O [Compound C6, 6-deoxy-5-epiapramycin] | 8 (≈ 15.3 µM) | 4 (≈ 7.64 µM) | 16 (≈ 30.6 µM) | 4 (≈ 7.64 µM) | 8 (≈ 15.3 µM) | 8 (≈ 15.3 µM) | 4 (≈ 7.64 µM) | 2 (≈ 3.82 µM) | 1 (≈ 1.91 µM) | 8 (≈ 15.3 µM) | 1 (≈ 1.91 µM) | 4 (≈ 7.64 µM) | 8 (≈ 15.3 µM) | 4 (≈ 7.64 µM)
CNC1C(OC2OC(CO)C(N)C(O)C2O)OC2CC(N)C(OC3C(N)CC(N)CC3F)OC2C1O (stereo not shown) [Compound C8, 5,6-dideoxy-5-fluoroapramycin] | 8 (≈ 15.2 µM) | 4 (≈ 7.61 µM) | 16 (≈ 30.4 µM) | 4 (≈ 7.61 µM) | 4 (≈ 7.61 µM) | 8 (≈ 15.2 µM) | 2 (≈ 3.81 µM) | 1 (≈ 1.9 µM) | 1 (≈ 1.9 µM) | 8 (≈ 15.2 µM) | 1 (≈ 1.9 µM) | 4 (≈ 7.61 µM) | 8 (≈ 15.2 µM) | 2 (≈ 3.81 µM)
CNC1C(OC2OC(CO)C(N)C(O)C2O)OC2CC(N)C(OC3C(N)CC(N)CC3N)OC2C1O (stereo not shown) [Compound C11, 5-amino-5,6-dideoxyapramycin] | 16 (≈ 30.6 µM) | 16 (≈ 30.6 µM) | 32 (≈ 61.2 µM) | 16 (≈ 30.6 µM) | 16 (≈ 30.6 µM) | 16 (≈ 30.6 µM) | 8 (≈ 15.3 µM) | 4 (≈ 7.65 µM) | 4 (≈ 7.65 µM) | 32 (≈ 61.2 µM) | 2 (≈ 3.83 µM) | 16 (≈ 30.6 µM) | 16 (≈ 30.6 µM) | 8 (≈ 15.3 µM)
